Experimental findings from PubChem BioAssay AID248 (DTP/NCI, 2004) are described below.

Toxic doses and inconclusive results are not listed.

The experiment has as its system L1210 leukemia ip in BDF1 mice, survival T/C. Kind of experiment: NCI In Vivo Anticancer Drug Screen. Data for tumor model L1210 Leukemia (intraperitoneal) in B6D2F1 (BDF1) mice. The following applies: endpoint: mean survival time, higher = longer survival. Summed up:
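Read-out is survival time, reported as the treated-group measurement over the vehicle-control measurement.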

The mark [1] stands for this setting: dose: 100.0 mg/kg/injection, schedule: Q01DX001 (ip), vehicle: carboxymethylcellulose (CMC).
The mark [2] stands for this setting: dose: 200.0 mg/kg/injection, schedule: Q01DX001 (ip), vehicle: carboxymethylcellulose (CMC).
The mark [3] stands for this setting: dose: 100.0 mg/kg/injection, schedule: Q04DX003 (ip), vehicle: saline with Tween-80.
The mark [4] stands for this setting: dose: 200.0 mg/kg/injection, schedule: Q04DX003 (ip), vehicle: saline with Tween-80.
[5] abbreviates: dose: 400.0 mg/kg/injection, schedule: Q04DX003 (ip), vehicle: saline with Tween-80.
[6] abbreviates: dose: 100.0 mg/kg/injection, schedule: Q01DX001 (ip), vehicle: saline.
Setting [7] is: dose: 200.0 mg/kg/injection, schedule: Q01DX001 (ip), vehicle: saline.
Setting [8] is: dose: 400.0 mg/kg/injection, schedule: Q01DX001 (ip), vehicle: saline.
[9] abbreviates: dose: 25.0 mg/kg/injection, schedule: Q01DX009 (ip), vehicle: saline.
The mark [10] stands for this setting: dose: 100.0 mg/kg/injection, schedule: Q01DX009 (ip), vehicle: saline with Tween-80.
The mark [11] stands for this setting: dose: 200.0 mg/kg/injection, schedule: Q01DX009 (ip), vehicle: saline with Tween-80.
The mark [12] stands for this setting: dose: 400.0 mg/kg/injection, schedule: Q01DX009 (ip), vehicle: saline with Tween-80.
Where [13] appears, read: dose: 100.0 mg/kg/injection, schedule: Q04DX002 (ip), vehicle: Klucel (hydroxypropylcellulose) (HPC).
Setting [14] is: dose: 200.0 mg/kg/injection, schedule: Q04DX002 (ip), vehicle: Klucel (hydroxypropylcellulose) (HPC).
The mark [15] stands for this setting: dose: 400.0 mg/kg/injection, schedule: Q04DX002 (ip), vehicle: Klucel (hydroxypropylcellulose) (HPC).

As for `CCOC(=O)C1CCC(C(=O)OCC)N1c1ccc(C=O)cc1` (stereo unspecified), the T/C reads like this: (dose: 100.0 mg/kg/injection, schedule: Q01DX009 (sc), vehicle: olive oil, sesame oil, peanut oil) 104 % of control; (dose: 100.0 mg/kg/injection, schedule: Q04DX003 (sc), vehicle: olive oil, sesame oil, peanut oil) 112 % of control; (dose: 200.0 mg/kg/injection, schedule: Q01DX009 (sc), vehicle: olive oil, sesame oil, peanut oil) 96 % of control; (dose: 200.0 mg/kg/injection, schedule: Q04DX003 (sc), vehicle: olive oil, sesame oil, peanut oil) 112 % of control; (dose: 400.0 mg/kg/injection, schedule: Q01DX009 (sc), vehicle: olive oil, sesame oil, peanut oil) 110 % of control; (dose: 400.0 mg/kg/injection, schedule: Q04DX003 (sc), vehicle: olive oil, sesame oil, peanut oil) 102 % of control.

On to `COc1cc2nc3occc3c(OC)c2c2c1OC(C(C)(C)O)C2` (stereo unspecified), for which the T/C (dose: 50.0 mg/kg/injection, schedule: Q01DX001 (ip), vehicle: carboxymethylcellulose (CMC)) was 98 % of control; the T/C under setting [1] is 117 % of control; the T/C under setting [2] is 93 % of control.

With `Cc1cc(Cc2cccc[n+]2[O-])c2ccccc2n1`, the T/C is 102 % of control (dose: 100.0 mg/kg/injection, schedule: Q04DX003 (ip), vehicle: Klucel (hydroxypropylcellulose) (HPC)) and 96 % of control (dose: 200.0 mg/kg/injection, schedule: Q04DX003 (ip), vehicle: Klucel (hydroxypropylcellulose) (HPC)).

Turning to `c1ccc(N=NNc2ccccc2)cc1`, the T/C is, setting by setting: (dose: 6.25 mg/kg/injection, schedule: Q01DX009 (ip), vehicle: saline with Tween-80) 100 % of control; (dose: 12.5 mg/kg/injection, schedule: Q01DX009 (ip), vehicle: saline with Tween-80) 94 % of control; (dose: 25.0 mg/kg/injection, schedule: Q01DX009 (ip), vehicle: saline with Tween-80) 98 % of control.

Take `COc1ccc2c(c1)C(=O)c1ccccc1-2`: the T/C reads like this: under setting [3], 101 % of control; under setting [4], 98 % of control; under setting [5], 109 % of control.

In the case of `c1ccc(N2CNN(c3ccccc3)CN2)cc1`, the T/C reads like this: under setting [1], 86 % of control; under setting [2], 90 % of control; (dose: 400.0 mg/kg/injection, schedule: Q01DX001 (ip), vehicle: carboxymethylcellulose (CMC)) 95 % of control.

As to `Clc1ncnc2c1ncn2C1CCCO1` (stereo unspecified), the T/C was 97 % of control under setting [6]; 113 % of control (dose: 178.0 mg/kg/injection, schedule: Q01DX009 (ip), vehicle: saline); 96 % of control under setting [7]; 113 % of control (dose: 267.0 mg/kg/injection, schedule: Q01DX009 (ip), vehicle: saline); 112 % of control under setting [8]; 154 % of control (dose: 400.0 mg/kg/injection, schedule: Q01DX009 (ip), vehicle: saline).

As for `O=[N+]([O-])c1c(Cl)nc2ccccn12`, the T/C was 93 % of control (dose: 3.13 mg/kg/injection, schedule: Q01DX009 (ip), vehicle: saline); 100 % of control (dose: 5.0 mg/kg/injection, schedule: Q01DX001 (ip), vehicle: saline); 95 % of control (dose: 6.25 mg/kg/injection, schedule: Q01DX009 (ip), vehicle: saline); 98 % of control (dose: 10.0 mg/kg/injection, schedule: Q01DX001 (ip), vehicle: saline); 93 % of control (dose: 12.5 mg/kg/injection, schedule: Q01DX009 (ip), vehicle: saline); 100 % of control (dose: 20.0 mg/kg/injection, schedule: Q01DX001 (ip), vehicle: saline). Moreover, the T/C was 93 % of control under setting [9]; 96 % of control (dose: 40.0 mg/kg/injection, schedule: Q01DX001 (ip), vehicle: saline); 93 % of control (dose: 80.0 mg/kg/injection, schedule: Q01DX001 (ip), vehicle: saline); 101 % of control under setting [6]; 110 % of control under setting [7]; 108 % of control under setting [8].

For `CC(C)Oc1ccc2c(c1)Sc1ccc(Cl)cc1N2`, the T/C by setting is: under setting [10], 102 % of control; under setting [11], 94 % of control; under setting [12], 92 % of control.

`O=[N+]([O-])c1ccc2c(c1)-c1ccccc1C2Cl` (stereo unspecified): the T/C runs as follows: (dose: 100.0 mg/kg/injection, schedule: Q01DX005 (ip), vehicle: Klucel (hydroxypropylcellulose) (HPC)) 94 % of control; under setting [13], 111 % of control; (dose: 200.0 mg/kg/injection, schedule: Q01DX005 (ip), vehicle: Klucel (hydroxypropylcellulose) (HPC)) 91 % of control; under setting [14], 101 % of control; (dose: 400.0 mg/kg/injection, schedule: Q01DX005 (ip), vehicle: Klucel (hydroxypropylcellulose) (HPC)) 88 % of control; under setting [15], 96 % of control.

With `CCOP(=O)(OCC)C(C)C#N` (stereo unspecified), the T/C by setting is: (dose: 15.0 mg/kg/injection, schedule: Q01DX001 (ip), vehicle: saline) 95 % of control; (dose: 30.0 mg/kg/injection, schedule: Q01DX001 (ip), vehicle: saline) 100 % of control.

As for `CCOC(=O)Nc1cc(N(C)CC(O)CN(C)c2ccccc2)c([N+](=O)[O-])c(N)n1` (stereo unspecified), the T/C was 101 % of control (dose: 100.0 mg/kg/injection, schedule: Q01DX001 (ip), vehicle: Klucel (hydroxypropylcellulose) (HPC)); 104 % of control (dose: 200.0 mg/kg/injection, schedule: Q01DX001 (ip), vehicle: Klucel (hydroxypropylcellulose) (HPC)); 97 % of control (dose: 400.0 mg/kg/injection, schedule: Q01DX001 (ip), vehicle: Klucel (hydroxypropylcellulose) (HPC)).

As to `CCCCC(CC)C1N(C)CCCN1C` (stereo unspecified), the T/C by setting is: under setting [3], 92 % of control; under setting [4], 98 % of control.

Regarding `CC1=CCCCC1Oc1ccccc1` (stereo unspecified), the T/C is, setting by setting: under setting [3], 104 % of control; under setting [4], 96 % of control; under setting [5], 109 % of control.

Take `CN(C)C(=O)Nc1cccc(OC(=O)NC(C)(C)C)c1`: the T/C is 93 % of control under setting [10], 87 % of control under setting [11] and 94 % of control under setting [12].

Turning to `C(=C\c1ccccn1)/c1ccc2c(c1)OCO2`, the T/C is, setting by setting: (dose: 75.0 mg/kg/injection, schedule: Q01DX009 (ip), vehicle: saline) 93 % of control; under setting [6], 101 % of control; (dose: 150.0 mg/kg/injection, schedule: Q01DX009 (ip), vehicle: saline) 93 % of control; under setting [7], 96 % of control; (dose: 300.0 mg/kg/injection, schedule: Q01DX009 (ip), vehicle: saline) 88 % of control; under setting [8], 95 % of control.

In the case of `O=C(C1=NNC(c2ccccc2)C1C(=O)c1ccccc1)c1ccccc1` (stereo unspecified), the T/C was 93 % of control (dose: 100.0 mg/kg/injection, schedule: Q01DX001 (ip), vehicle: steriod suspending solution); 110 % of control (dose: 200.0 mg/kg/injection, schedule: Q01DX001 (ip), vehicle: steriod suspending solution); 101 % of control (dose: 400.0 mg/kg/injection, schedule: Q01DX001 (ip), vehicle: steriod suspending solution).

For the compound `O=C(O)COc1cc(Cl)ccc1Cl`, the T/C runs as follows: under setting [13], 95 % of control; under setting [14], 95 % of control; under setting [15], 100 % of control.

`NCCC(=O)OC1CCCc2c(O)c3c(c(O)c21)C(=O)c1ccccc1C3=O` (stereo unspecified): the T/C is 93 % of control (dose: 12.5 mg/kg/injection, schedule: Q04DX003 (ip), vehicle: saline); 93 % of control under setting [9]; 95 % of control (dose: 25.0 mg/kg/injection, schedule: Q04DX003 (ip), vehicle: saline); 97 % of control (dose: 50.0 mg/kg/injection, schedule: Q01DX009 (ip), vehicle: saline); 98 % of control (dose: 50.0 mg/kg/injection, schedule: Q04DX003 (ip), vehicle: saline); 102 % of control (dose: 100.0 mg/kg/injection, schedule: Q04DX003 (ip), vehicle: saline).

For the compound `COc1cc(C=Nc2ccc3c(c2)Cc2ccccc2-3)ccc1O`, the T/C is, setting by setting: (dose: 100.0 mg/kg/injection, schedule: Q04DX003 (ip), vehicle: saline sonified) 94 % of control; (dose: 200.0 mg/kg/injection, schedule: Q04DX003 (ip), vehicle: saline sonified) 97 % of control; (dose: 400.0 mg/kg/injection, schedule: Q04DX003 (ip), vehicle: saline sonified) 95 % of control.
